Assay results from the supplement of paper PMC10307832.

Experiments:
Experiment in all cases: relative viability (nuclei count vs DMSO), 5 days (fraction); higher = more cells survive
Dasatinib + Foretinib = compound: Cc1nc(Nc2ncc(C(=O)Nc3c(C)cccc3Cl)s2)cc(N2CCN(CCO)CC2)n1 [Dasatinib] + COc1cc2c(Oc3ccc(NC(=O)C4(C(=O)Nc5ccc(F)cc5)CC4)cc3F)ccnc2cc1OCCCN1CCOCC1 [Foretinib] (partner 0.25 µM)
How it was run: (§1)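 Lung cancer cell lines were seeded in 1536-well plates and dosed by pin tool the next day, with either a single drug or a fixed anchor-drug dose combined with five library-drug doses (not always all listed) spaced in √10 steps. Five days later, one step fixed the cells and stained their nuclei (final 0.05% Triton X-100, 1% formaldehyde, 1 ug/ml Hoechst), and nuclei were counted on 4× images. Relative viability is the nuclei count in treated wells divided by the count in vehicle wells, and each value is the median of duplicate plates.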

ALW-II-49-7 + Navitoclax = compound: Cc1ccc(C(=O)Nc2cccc(C(F)(F)F)c2)cc1Nc1cncc(C(N)=O)c1 [ALW-II-49-7] + CC1(C)CCC(c2ccc(Cl)cc2)=C(CN2CCN(c3ccc(C(=O)NS(=O)(=O)c4ccc(N[C@H](CCN5CCOCC5)CSc5ccccc5)c(S(=O)(=O)C(F)(F)F)c4)cc3)CC2)C1 [Navitoclax] (partner 0.5 µM)
How it was run: as §1

[1] = compound: Cc1ccc(C(=O)Nc2cccc(C(F)(F)F)c2)cc1Nc1cncc(C(N)=O)c1 [ALW-II-49-7] + CC(=O)c1c(C)c2cnc(Nc3ccc(N4CCNCC4)cn3)nc2n(C2CCCC2)c1=O [Palbociclib] (partner 0.5 µM)
How it was run: as §1

XMD13-2 + Dasatinib = compound: C1CC1C(=O)NC2=NNC3=C2C=CC(=C3)C4=CC(=CC=C4)C(=O)NC5CC5 [XMD13-2] + Cc1nc(Nc2ncc(C(=O)Nc3c(C)cccc3Cl)s2)cc(N2CCN(CCO)CC2)n1 [Dasatinib] (partner 0.075 µM)
How it was run: as §1

UMC-11
relative viability (Dasatinib + Foretinib; first compound 0.005 µM): 0.912 | relative viability (Dasatinib + Foretinib; first compound 0.01581 µM): 0.699 | relative viability (Dasatinib + Foretinib; first compound 0.05 µM): 0.696 | relative viability (Dasatinib + Foretinib; first compound 0.1581 µM): 0.379 | relative viability (Dasatinib + Foretinib; first compound 0.5 µM): 0.276 | relative viability (ALW-II-49-7 + Navitoclax; first compound 0.08 µM): 0.311 | relative viability (ALW-II-49-7 + Navitoclax; first compound 0.253 µM): 0.345 | relative viability (ALW-II-49-7 + Navitoclax; first compound 2.53 µM): 0.322 | relative viability (ALW-II-49-7 + Navitoclax; first compound 8 µM): 0.335 | relative viability ([1]; first compound 0.08 µM): 0.345 | relative viability ([1]; first compound 0.253 µM): 0.348 | relative viability ([1]; first compound 0.8 µM): 0.33 | relative viability ([1]; first compound 2.53 µM): 0.295 | relative viability ([1]; first compound 8 µM): 0.274 | relative viability (XMD13-2 + Dasatinib; first compound 0.05 µM): 0.55 | relative viability (XMD13-2 + Dasatinib; first compound 0.1581 µM): 0.428 | relative viability (XMD13-2 + Dasatinib; first compound 0.5 µM): 0.477 | relative viability (XMD13-2 + Dasatinib; first compound 1.581 µM): 0.505 | relative viability (XMD13-2 + Dasatinib; first compound 5 µM): 0.453
